In US12157746B2, “Tetrahydro-1H-pyrazino[2,1-a]isoindolylquinoline compounds for the treatment of autoimmune disease” (F. HOFFMANN-LA ROCHE AG, priority 2018, dated 2024):

The compounds below were run against T1, human TLR9 (Homo sapiens, UniProt Q9NR96) (assay: HEK293-Blue-hTLR-9 cells assay). Conditions: HEK293-Blue-hTLR9 cells, ODN2006 stimulation, 20 hrs, SEAP reporter; read-out: HEK/hTLR9 IC50.
T1 sequence (Q9NR96 26-1032): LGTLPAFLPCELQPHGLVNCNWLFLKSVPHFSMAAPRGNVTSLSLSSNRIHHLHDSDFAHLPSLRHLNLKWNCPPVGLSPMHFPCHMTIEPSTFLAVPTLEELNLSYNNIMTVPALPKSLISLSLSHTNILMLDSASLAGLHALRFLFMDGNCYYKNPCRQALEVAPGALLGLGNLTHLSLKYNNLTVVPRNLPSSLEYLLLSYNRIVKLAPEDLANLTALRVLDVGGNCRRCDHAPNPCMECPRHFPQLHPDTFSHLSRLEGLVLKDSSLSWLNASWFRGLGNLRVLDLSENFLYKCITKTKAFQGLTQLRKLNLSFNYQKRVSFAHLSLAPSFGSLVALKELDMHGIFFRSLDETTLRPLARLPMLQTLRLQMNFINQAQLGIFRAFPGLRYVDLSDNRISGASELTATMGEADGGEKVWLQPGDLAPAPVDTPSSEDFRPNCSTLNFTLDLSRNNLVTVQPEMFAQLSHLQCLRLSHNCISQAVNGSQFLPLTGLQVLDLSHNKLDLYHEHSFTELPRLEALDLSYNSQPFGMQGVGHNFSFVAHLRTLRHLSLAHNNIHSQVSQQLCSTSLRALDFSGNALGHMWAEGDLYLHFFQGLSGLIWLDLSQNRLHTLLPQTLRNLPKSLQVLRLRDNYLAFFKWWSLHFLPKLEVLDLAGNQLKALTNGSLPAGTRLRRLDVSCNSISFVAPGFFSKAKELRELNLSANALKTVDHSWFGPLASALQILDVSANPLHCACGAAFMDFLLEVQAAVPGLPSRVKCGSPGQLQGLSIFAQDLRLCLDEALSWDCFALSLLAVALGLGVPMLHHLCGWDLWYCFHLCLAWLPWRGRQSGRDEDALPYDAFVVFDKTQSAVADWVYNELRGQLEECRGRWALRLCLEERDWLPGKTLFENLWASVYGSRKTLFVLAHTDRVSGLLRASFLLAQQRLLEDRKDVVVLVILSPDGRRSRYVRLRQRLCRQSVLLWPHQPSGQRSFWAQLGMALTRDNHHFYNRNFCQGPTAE
Type: cell-based
Text: HEK293-Blue-hTLR-9 Cells Assay:
A stable HEK293-Blue-hTLR-9 cell line was purchased from InvivoGen (Cat. #: hkb-htlr9, San Diego. California USA). These cells were originally designed for studying the stimulation of human TLR9 by monitoring the activation of NF-κB. A SEAP (secreted embryonic alkaline phosphatase) reporter gene was placed under the control of the IFN-β minimal promoter fused to five NF-κB and AP-1-binding sites. The SEAP was induced by activating NF-κB and AP-1 via stimulating HEK-Blue hTLR9 cells with TLR9 ligands. Therefore the reporter expression was declined by TLR9 antagonist under the stimulation of a ligand, such as ODN2006 (Cat. #: tlrl-2006-1, Invivogen, San Diego, California USA), for incubation of 20 hrs. The cell culture supernatant SEAP reporter activity was determined using QUANTI-Blue™ kit (Cat. #: rep-qb1, Invivogen, San Diego, California, USA) at a wavelength of 640 nm, a detection medium that turns purple or blue in the presence of alkaline phosphatase.
HEK293-Blue-hTLR9 cells were incubated at a density of 250.000-450,000 cells/mL in a volume of 170 μL in a 96-well plate in Dulbecco's Modified Eagle's medium (DMEM) containing 4.5 g/L glucose, 50 U/mL penicillin, […], […], 2 mM L-glutamine, 10% (v/v) heat-inactivated fetal bovine serum with addition of 20 μL test compound 1n a serial dilution in the presence of final DMSO at 1% and 10 μL of 20 uM ODN2006 in above DMEM, perform incubation under 37° C. in a CO2 incubator for 20 hrs. Then 20 μL of the supernatant from each well was incubated with 180 μL Quanti-blue substrate solution at 37° C. for 2 h and the absorbance was read at 620˜655 nm using a spectrophotometer. The signaling pathway that TLR9 activation leads to downstream NF-κB activation has been widely accepted, and therefore similar reporter assay was modified for evaluating TLR9 antagonist.

Row | Compound | IC50
1 | C[C@@H]1CN(c2ccc(C#N)c3ncccc23)C[C@@H]2c3ccc(N4C[C@@H](F)[C@@H](N)C4)cc3CN12 [Example 46, 5-[(4R,10bS)-8-[(3S,4R)-3-amino-4-fluoro-pyrrolidin-1-yl]-4-methyl-3,4,6,10b-tetrahydro-1H-pyrazino[2,1-a]isoindol-2-yl]quinoline-8-carbonitrile] | 144 nM
2 | C[C@@H]1CN(c2ccc(C#N)c3ncccc23)C[C@@H]2c3ccc(N4C[C@@H](N)[C@@H](F)C4)cc3CN12 [Example 47, 5-[(4R,10bS)-8-[(3R,4S)-3-amino-4-fluoro-pyrrolidin-1-yl]-4-methyl-3,4,6,10b-tetrahydro-1H-pyrazino[2,1-a]isoindol-2-yl]quinoline-8-carbonitrile] | 146 nM
3 | C[C@@H]1CN(c2ccc(C#N)c3ncccc23)C[C@@H]2c3ccc(N4C[C@@H](N)[C@H](F)C4)cc3CN12 [Example 48, 5-[(4R,10bS)-8-[(3R,4R)-3-amino-4-fluoro-pyrrolidin-1-yl]-4-methyl-3,4,6,10b-tetrahydro-1H-pyrazino[2,1-a]isoindol-2-yl]quinoline-8-carbonitrile] | 193 nM
4 | C[C@@H]1CN(c2ccc(C#N)c3ncccc23)C[C@@H]2c3ccc(N4C[C@H](N)[C@@H](F)C4)cc3CN12 [Example 49, 5-[(4R,10bS)-8-[(3S,4S)-3-amino-4-fluoro-pyrrolidin-1-yl]-4-methyl-3,4,6,10b-tetrahydro-1H-pyrazino[2,1-a]isoindol-2-yl]quinoline-8-carbonitrile] | 186 nM
5 | C[C@@H]1CN(c2ccc(C#N)c3ncccc23)C[C@@H]2c3ccc(N4CCC(C)(N)CC4)cc3CN12 [Example 51, 5-[(4R,10bS)-8-(4-amino-4-methyl-1-piperidyl)-4-methyl-3,4,6,10b-tetrahydro-1H-pyrazino[2,1-a]isoindol-2-yl]quinoline-8-carbonitrile] | 139 nM
6 | C[C@@H]1CN(c2ccc(C#N)c3ncccc23)C[C@@H]2c3ccc(N4CCOC5CNCC54)cc3CN12 (stereo partly drawn) [Example 52, 5-[(4R,10bS)-8-(3,4a,5,6,7,7a-hexahydro-2H-pyrrolo[3,4-b][1,4]oxazin-4-yl)-4-methyl-3,4,6,10b-tetrahydro-1H-pyrazino[2,1-a]isoindol-2-yl]quinoline-8-carbonitrile] | 195 nM
7 | C[C@@H]1CN(c2ccc(C#N)c3ncccc23)C[C@@H]2c3ccc(N4CCNCC(C)(O)C4)cc3CN12 (stereo partly drawn) [Example 55, 5-[(4R,10S)-8-(6-hydroxy-6-methyl-1,4-diazepan-1-yl)-4-methyl-3,4,6,10b-tetrahydro-1H-pyrazino[2,1-a]isoindol-2-yl]quinoline-8-carbonitrile] | 118 nM
8 | C[C@@H]1CN(c2ccc(C#N)c3ncccc23)C[C@@H]2c3ccc(N4CCNC[C@](C)(O)C4)cc3CN12 [Example 55A, 5-[(4R,10bS)-8-[(6S)-6-hydroxy-6-methyl-1,4-diazepan-1-yl]-4-methyl-3,4,6,10b-tetrahydro-1H-pyrazino[2,1-a]isoindol-2-yl]quinoline-8-carbonitrile] | 111 nM
9 | C[C@@H]1CN(c2ccc(C#N)c3ncccc23)C[C@@H]2c3ccc(N4CCNC[C@@](C)(O)C4)cc3CN12 [Example 55B, 5-[(4R,10bS)-8-[(6R)-6-hydroxy-6-methyl-1,4-diazepan-1-yl]-4-methyl-3,4,6,10b-tetrahydro-1H-pyrazino[2,1-a]isoindol-2-yl]quinoline-8-carbonitrile] | 156 nM

Now those with a lower IC50, led by results:

Row | IC50 | Compound
10 | 78.5 nM | C[C@@H]1CN(c2ccc(C#N)c3ncccc23)C[C@@H]2c3ccc(N4C[C@@H](N)[C@](C)(O)C4)cc3CN12 [Example 45, 5-[(4R,10bS)-4-methyl-8-[trans-(3R,4R)-4-amino-3-hydroxy-3-methyl-pyrrolidin-1-yl]-3,4,6,10b-tetrahydro-1H-pyrazino[2,1-a]isoindol-2-yl]quinoline-8-carbonitrile]
11 | 78.3 nM | C[C@@H]1CN(c2ccc(C#N)c3ncccc23)C[C@@H]2c3ccc(N4C[C@@H](N)[C@](C)(O)C4)cc3CN12 [Example 45A, 5-[(4R,10bS)-8-[(3R,4R)-4-amino-3-hydroxy-3-methyl-pyrrolidin-1-yl]-4-methyl-3,4,6,10b-tetrahydro-1H-pyrazino[2,1-a]isoindol-2-yl]quinoline-8-carbonitrile]
12 | 74.1 nM | C[C@@H]1CN(c2ccc(C#N)c3ncccc23)C[C@@H]2c3ccc(N4C[C@H](N)[C@@](C)(O)C4)cc3CN12 [Example 45B, 5-[(4R,10bS)-8-[(3S,4S)-4-amino-3-hydroxy-3-methyl-pyrrolidin-1-yl]-4-methyl-3,4,6,10b-tetrahydro-1H-pyrazino[2,1-a]isoindol-2-yl]quinoline-8-carbonitrile]
13 | 56 nM | C[C@@H]1CN(c2ccc(C#N)c3ncccc23)C[C@@H]2c3ccc(N4CCNC[C@H](O)C4)cc3CN12 [Example 53A, 5-[(4R,10bS)-8-[(6S)-6-hydroxy-1,4-diazepan-1-yl]-4-methyl-3,4,6,10b-tetrahydro-1H-pyrazino[2,1-a]isoindol-2-yl]quinoline-8-carbonitrile]
14 | 68 nM | C[C@@H]1CN(c2ccc(C#N)c3ncccc23)C[C@@H]2c3ccc(N4CCNC[C@@H](O)C4)cc3CN12 [Example 53B, 5-[(4R,10bS)-8-[(6R)-6-hydroxy-1,4-diazepan-1-yl]-4-methyl-3,4,6,10b-tetrahydro-1H-pyrazino[2,1-a]isoindol-2-yl]quinoline-8-carbonitrile]
15 | 63.6 nM | C[C@@H]1CN(c2ccc(C#N)c3ncccc23)C[C@@H]2c3ccc(N4CCOCC(N)C4)cc3CN12 (stereo partly drawn) [Example 54, 5-[(4R,10bS)-8-(6-amino-1,4-oxazepan-4-yl)-4-methyl-3,4,6,10b-tetrahydro-1H-pyrazino[2,1-a]isoindol-2-yl]quinoline-8-carbonitrile]
16 | 92.2 nM | C[C@@H]1CN(c2ccc(C#N)c3ncccc23)C[C@@H]2c3ccc(N4CCOC[C@H](N)C4)cc3CN12 [Example 54A, 5-[(4R,10bS)-8-[(6R)-6-amino-1,4-oxazepan-4-yl]-4-methyl-3,4,6,10b-tetrahydro-1H-pyrazino[2,1-a]isoindol-2-yl]quinoline-8-carbonitrile]
17 | 87.3 nM | C[C@@H]1CN(c2ccc(C#N)c3ncccc23)C[C@@H]2c3ccc(N4CCOC[C@@H](N)C4)cc3CN12 [Example 54B, 5-[(4R,10bS)-8-[(6S)-6-amino-1,4-oxazepan-4-yl]-4-methyl-3,4,6,10b-tetrahydro-1H-pyrazino[2,1-a]isoindol-2-yl]quinoline-8-carbonitrile]
18 | 103 nM | C[C@@H]1CN(c2ccc(C#N)c3ncccc23)C[C@@H]2c3ccc(NC4CNCCOC4)cc3CN12 (stereo partly drawn) [Example 56, 5-[(4R,10bS)-4-methyl-8-(1,4-oxazepan-6-ylamino)-3,4,6,10b-tetrahydro-1H-pyrazino[2,1-a]isoindol-2-yl]quinoline-8-carbonitrile]
19 | 70.5 nM | [2H]c1ccc2c(N3C[C@@H](C)N4Cc5cc(N[C@H]6CNC[C@H]6F)ccc5[C@H]4C3)ccc(C#N)c2n1 [Example 91, 5-[(4R,10bS)-8-[[(3S,4R)-4-fluoropyrrolidin-3-yl]amino]-4-methyl-3,4,6,10b-tetrahydro-1H-pyrazino[2,1-a]isoindol-2-yl]-2-deuterio-quinoline-8-carbonitrile]
